According to patent US7491794B2, “Macrocyclic compounds as inhibitors of viral replication” (Intermune, Inc., priority 2003, dated 2009):
Where two headings read alike, the source gives them in different places.

Key:
[1] = tested on: HCV sub-genomic replicon, GS4.3; assay: Quantitation by ELISA of NPTII in the HCV sub-genomic replicon, GS4.3, Section B; format: cell-based; details: Hepatitis C virus, read-out: Replicon EC50
Procedure, shortened: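 NPTII marker protein in lysates was quantified by ELISA read at 450 nm after 72 h inhibitor exposure (3-fold series, final DMSO 1%, G418-free medium) of HuH-7 cells stably harbouring the subgenomic HCV replicon. Values relative to DMSO-treated controls; 4-parameter curves gave EC50.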

[2] = biological target: T1, NS3-NS4A protease (Hepatitis C virus genotype 1a, UniProt P27958); assay: NS3-NS4A protease assay (NS3 inhibition assay, RETS1 substrate), Section B; format: biochemical; details: read-out: NS3-NS4A IC50
T1 construct: Recombinant E. coli or Baculovirus full-length NS3 was diluted to 3.33 μM with assay buffer; made in house; host or cells: E. coli or baculovirus (BV) system
T1 sequence (P27958 1027-1657): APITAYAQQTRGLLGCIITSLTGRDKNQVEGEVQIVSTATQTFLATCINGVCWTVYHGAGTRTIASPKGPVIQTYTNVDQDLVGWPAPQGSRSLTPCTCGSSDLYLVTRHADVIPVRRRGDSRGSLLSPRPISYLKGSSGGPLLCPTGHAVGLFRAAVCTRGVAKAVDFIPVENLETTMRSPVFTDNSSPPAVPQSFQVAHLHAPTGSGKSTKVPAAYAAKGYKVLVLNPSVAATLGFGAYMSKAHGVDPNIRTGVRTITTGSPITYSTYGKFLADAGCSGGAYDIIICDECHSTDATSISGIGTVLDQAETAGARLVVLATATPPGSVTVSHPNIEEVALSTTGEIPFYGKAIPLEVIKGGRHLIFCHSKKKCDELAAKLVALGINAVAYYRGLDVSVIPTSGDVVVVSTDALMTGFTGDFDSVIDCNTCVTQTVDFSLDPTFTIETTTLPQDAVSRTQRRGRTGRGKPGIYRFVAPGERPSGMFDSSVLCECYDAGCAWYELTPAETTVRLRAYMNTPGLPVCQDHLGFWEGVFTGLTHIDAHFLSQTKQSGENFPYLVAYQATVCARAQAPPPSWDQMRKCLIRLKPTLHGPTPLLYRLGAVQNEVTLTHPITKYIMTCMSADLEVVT
Procedure, shortened: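 Kinetic fluorescence read (335 nm excitation, 495 nm emission, 30 min) of RETS1 cleavage by NS3/NS4A-2 complex, 2 nM E. coli or 3 nM baculovirus NS3, after 10 min room-temperature compound pre-incubation. Four-parameter-fit IC50s converted to Ki by Cheng–Prusoff, Ki=IC50/(1+[S]/Km).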

`CC(C)(OC(=O)N[C@H]1CCCCC/C=C\[C@@H]2C[C@@]2(C(=O)NS(=O)(=O)C2CC2)NC(=O)[C@@H]2C[C@@H](OC(=O)N3CCc4ccccc4C3)CN2C1=O)C(F)(F)F` [AR00320582, (1S,4R,6S,14S,18R)-3,4-Dihydro-1H-isoquinoline-2-carboxylic acid 4-cyclopropanesulfonylaminocarbonyl-2,15-dioxo-14-(2,2,2-trifluoro-1,1-dimethyl-ethoxycarbonylamino)-3,16-diaza-tricyclo[14.3.0.0^4,6]nonadec-7-en-18-yl ester] was tested, and the EC50 ([1]; GS4.3 cells, 72 h incubation) was less than 100 nM and the IC50 [2] was less than 100 nM.
For `CC(C)(C)OC(=O)N[C@H]1CCCCC/C=C\[C@@H]2C[C@@]2(C(=O)NS(=O)(=O)c2cc(C(=O)O)c(Cl)cc2F)NC(=O)[C@@H]2C[C@@H](OC(=O)N3Cc4ccccc4C3)CN2C1=O` [AR00365426, (1S,4R,6S,14S,18R)-1,3-Dihydro-isoindole-2-carboxylic acid 14-tert-butoxycarbonylamino-4-(5-carboxy-4-chloro-2-fluoro-benzenesulfonylaminocarbonyl)-2,15-dioxo-3,16-diaza-tricyclo[14.3.0.0^4,6]nonadec-7-en-18-yl ester], the EC50 ([1]; GS4.3 cells, 72 h incubation) was less than 10000 nM and the IC50 [2] was less than 100 nM.
In the case of `CC(C)(C)NC(=O)N[C@H]1CCCCC/C=C\[C@@H]2C[C@@]2(C(=O)NS(=O)(=O)C2CC2)NC(=O)[C@@H]2C[C@@H](OC(=O)N3Cc4ccccc4C3)CN2C1=O` [AR00320220, (1S,4R,6S,14S,18R)-1,3-Dihydro-isoindole-2-carboxylic acid 14-(3-tert-butyl-ureido)-4-cyclopropanesulfonylaminocarbonyl-2,15-dioxo-3,16-diaza-tricyclo[14.3.0.0^4,6]nonadec-7-en-18-yl ester], the EC50 ([1]; GS4.3 cells, 72 h incubation) is reported as less than 100 nM and the IC50 [2] is reported as less than 100 nM.
`O=C(N[C@H]1CCCCC/C=C\[C@@H]2C[C@@]2(C(=O)O)NC(=O)[C@@H]2C[C@@H](OC(=O)N3CCc4ccccc4C3)CN2C1=O)O[C@H]1CCOC1` [AR00304126, (1S,4R,6S,14S,18R)-18-(3,4-Dihydro-1H-isoquinoline-2-carbonyloxy)-2,15-dioxo-14-(tetrahydro-furan-3S-yloxycarbonylamino)-3,16-diaza-tricyclo[14.3.0.0^4,6]nonadec-7-ene-4-carboxylic acid] gave an EC50 ([1]; GS4.3 cells, 72 h incubation) of less than 10000 nM and an IC50 [2] of less than 1000 nM.
Molecule `COCC1c2cccc(F)c2CCN1C(=O)O[C@@H]1CC2C(=O)N[C@]3(C(=O)O)C[C@H]3/C=C\CCCCC[C@H](NC(=O)OC3CCCC3)C(=O)N2C1` (stereo partly drawn) [AR00365381, (1S,4R,6S,14S,18R)-14-Cyclopentyloxycarbonylamino-18-(5-fluoro-1-methoxymethyl-3,4-dihydro-1H-isoquinoline-2-carbonyloxy)-2,15-dioxo-3,16-diaza-tricyclo[14.3.0.0^4,6]nonadec-7-ene-4-carboxylic acid] has an EC50 ([1]; GS4.3 cells, 72 h incubation) of less than 1000 nM and an IC50 [2] of less than 1000 nM.
`CC(C)(C)NC(=O)N[C@H]1CCCCC/C=C\[C@@H]2C[C@@]2(C(=O)O)NC(=O)[C@@H]2C[C@@H](OC(=O)N3CCc4ccccc4C3)CN2C1=O` [AR00294377, (1S,4R,6S,14S,18R)-14-(3-tert-Butyl-ureido)-18-(3,4-dihydro-1H-isoquinoline-2-carbonyloxy)-2,15-dioxo-3,16-diaza-tricyclo[14.3.0.0^4,6]nonadec-7-ene-4-carboxylic acid] gave an EC50 ([1]; GS4.3 cells, 72 h incubation) of less than 10000 nM and an IC50 [2] of less than 1000 nM.
`O=C(N[C@H]1CCCCC/C=C\[C@@H]2C[C@@]2(C(=O)NS(=O)(=O)C2CC2)NC(=O)[C@@H]2C[C@@H](OC(=O)N3CCc4ccccc4C3)CN2C1=O)OCC(F)F` [AR00320579, (1S,4R,6S,14S,18R)-3,4-Dihydro-1H-isoquinoline-2-carboxylic acid 4-cyclopropanesulfonylaminocarbonyl-14-(2,2-difluoro-ethoxycarbonylamino)-2,15-dioxo-3,16-diaza-tricyclo[14.3.0.0^4,6]nonadec-7-en-18-yl ester] showed an EC50 ([1]; GS4.3 cells, 72 h incubation) of less than 100 nM and an IC50 [2] of less than 100 nM.
Molecule `C[C@H]1CN(C(=O)O[C@@H]2C[C@H]3C(=O)N[C@]4(C(=O)O)C[C@H]4C=CCCCCC[C@H](NC(=O)OC(C)(C)C)C(=O)N3C2)Cc2ccccc21` [AR00320122, (1S,4R,6S,14S,18R)-14-tert-Butoxycarbonylamino-18-(4R-methyl-3,4-dihydro-1H-isoquinoline-2-carbonyloxy)-2,15-dioxo-3,16-diaza-tricyclo[14.3.0.0^4,6]nonadec-7-ene-4-carboxylic acid] has an EC50 ([1]; GS4.3 cells, 72 h incubation) of less than 10000 nM and an IC50 [2] of less than 1000 nM.
`CC(C)(C)OC(=O)N[C@H]1CCCCC/C=C\[C@@H]2C[C@@]2(C(=O)NS(=O)(=O)c2ccc(Cl)s2)NC(=O)[C@@H]2C[C@@H](OC(=O)N3Cc4ccccc4C3)CN2C1=O` [AR00334188, (1S,4R,6S,14S,18R)-1,3-Dihydro-isoindole-2-carboxylic acid 14-tert-butoxycarbonylamino-4-(5-chloro-thiophene-2-sulfonylaminocarbonyl)-2,15-dioxo-3,16-diaza-tricyclo[14.3.0.0^4,6]nonadec-7-en-18-yl ester] gave an EC50 ([1]; GS4.3 cells, 72 h incubation) of less than 1000 nM and an IC50 [2] of less than 100 nM.
In the case of `O=C(N[C@H]1CCCCC/C=C\[C@@H]2C[C@@]2(C(=O)O)NC(=O)[C@@H]2C[C@@H](OC(=O)N3Cc4ccccc4C3)CN2C1=O)O[C@@H]1CCOC1` [AR00320074, (1S,4R,6S,14S,18R)-18-(1,3-Dihydro-isoindole-2-carbonyloxy)-2,15-dioxo-14-(tetrahydro-furan-3R-yloxycarbonylamino)-3,16-diaza-tricyclo[14.3.0.0^4,6]nonadec-7-ene-4-carboxylic acid], the EC50 ([1]; GS4.3 cells, 72 h incubation) is reported as less than 10000 nM and the IC50 [2] is reported as less than 100 nM.
For `CC(C)(C)OC(=O)N[C@H]1CCCCC/C=C\[C@@H]2C[C@@]2(C(=O)O)NC(=O)[C@@H]2C[C@@H](OC(=O)N3CCc4ccc(N)cc4C3)CN2C1=O` [AR00301749, (1S,4R,6S,14S,18R)-18-(7-Amino-3,4-dihydro-1H-isoquinoline-2-carbonyloxy)-14-tert-butoxycarbonylamino-2,15-dioxo-3,16-diaza— tricyclo[14.3.0.0^4,6]nonadec-7-ene-4-carboxylic acid], the EC50 ([1]; GS4.3 cells, 72 h incubation) was less than 10000 nM and the IC50 [2] was less than 1000 nM.
In the case of `CC(C)(C)OC(=O)N[C@H]1CCCCC/C=C\[C@@H]2C[C@@]2(C(=O)NS(=O)(=O)C2CC2)NC(=O)[C@@H]2C[C@@H](OC(=O)N3Cc4ccc(O)cc4C3)CN2C1=O` [AR00364936, (1S,4R,6S,14S,18R)-5-Hydroxy-1,3-dihydro-isoindole-2-carboxylic acid 14-tert-butoxycarbonylamino-4-cyclopropanesulfonylaminocarbonyl-2,15-dioxo-3,16-diaza-tricyclo[14.3.0.0^4,6]nonadec-7-en-18-yl ester], the EC50 ([1]; GS4.3 cells, 72 h incubation) is reported as less than 1000 nM and the IC50 [2] is reported as less than 100 nM.
`CC(C)(C)OC(=O)N[C@H]1CCCCC/C=C\[C@@H]2C[C@@]2(C(=O)O)NC(=O)[C@@H]2C[C@@H](OC(=O)N3CCc4cc(F)ccc4C3)CN2C1=O` [AR00304063, (1S,4R,6S,14S,18R)-14-tert-Butoxycarbonylamino-18-(6-fluoro-3,4-dihydro-1H-isoquinoline-2-carbonyloxy)-2,15-dioxo-3,16-diaza-tricyclo[14.3.0.0^4,6]nonadec-7-ene-4-carboxylic acid] showed an EC50 ([1]; GS4.3 cells, 72 h incubation) of less than 10000 nM and an IC50 [2] of less than 1000 nM.
`COc1ccc(S(=O)(=O)NC(=O)[C@@]23C[C@H]2/C=C\CCCCC[C@H](NC(=O)OC(C)(C)C)C(=O)N2C[C@H](OC(=O)N4CCc5ccccc5C4)C[C@H]2C(=O)N3)cc1` [AR00320548, (1S,4R,6S,14S,18R)-3,4-Dihydro-1H-isoquinoline-2-carboxylic acid 14-tert-butoxycarbonylamino-4-(4-methoxy-benzenesulfonylaminocarbonyl)-2,15-dioxo-3,16-diaza-tricyclo[14.3.0.0^4,6]nonadec-7-en-18-yl ester] was tested, and the EC50 ([1]; 72 h) was less than 100 nM and the IC50 [2] was less than 100 nM.
In the case of `CC1CN(C(=O)O[C@@H]2C[C@H]3C(=O)N[C@]4(C(=O)O)C[C@H]4C=CCCCCC[C@H](NC(=O)OC(C)(C)C)C(=O)N3C2)Cc2ccccc21` (stereo partly drawn) [AR00304067, (1S,4R,6S,14S,18R)-14-tert-Butoxycarbonylamino-18-(4-methyl-3,4-dihydro-1H-isoquinoline-2-carbonyloxy)-2,15-dioxo-3,16-diaza-tricyclo[14.3.0.0^4,6]nonadec-7-ene-4-carboxylic acid], the EC50 ([1]; GS4.3 cells, 72 h incubation) is reported as less than 10000 nM and the IC50 [2] is reported as less than 1000 nM.
Molecule `O=C(N[C@H]1CCCCC/C=C\[C@@H]2C[C@@]2(C(=O)NS(=O)(=O)C2CC2)NC(=O)[C@@H]2C[C@@H](OC(=O)N3CCc4ccccc4[C@@H]3CN3CCCCC3)CN2C1=O)OC1CCCC1` [AR00320556, (1S,4R,6S,14S,18R)-1-Piperidin-1R-ylmethyl-3,4-dihydro-1H-isoquinoline-2-carboxylic acid 14-cyclopentyloxycarbonylamino-4-cyclopropanesulfonylaminocarbonyl-2,15-dioxo-3,16-diaza-tricyclo[14.3.0.0^4,6]nonadec-7-en-18-yl ester] has an EC50 ([1]; GS4.3 cells, 72 h incubation) of less than 100 nM and an IC50 [2] of less than 100 nM.
Molecule `CC(C)(C)OC(=O)N[C@H]1CCCCC/C=C\[C@@H]2C[C@@]2(C(=O)NS(=O)(=O)C2CC2)NC(=O)[C@@H]2C[C@@H](OC(=O)N3Cc4ccc(OCCOC(=O)N5CCOCC5)cc4C3)CN2C1=O` [AR00345032, (1S,4R,6S,14S,18R)-5-[2-(Morpholine-4-carbonyloxy)-ethoxy]-1,3-dihydro-isoindole-2-carboxylic acid 14-tert-butoxycarbonylamino-4-cyclopropanesulfonylaminocarbonyl-2,15-dioxo-3,16-diaza-tricyclo[14.3.0.0^4,6]nonadec-7-en-18-yl ester] has an EC50 ([1]; GS4.3 cells, 72 h incubation) of less than 100 nM and an IC50 [2] of less than 100 nM.
